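These data come from cells grown in 96-well plates and exposed to compound for 48 hours at five concentrations. TGI marks complete inhibition of growth.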
Tests used:
Assay in all cases: growth of human tumour cells (NCI), 48 h
[1] = system: SK-MEL-28 melanoma
[2] = system: HL-60(TB) leukemia
[3] = system: NCI-H226 lung
[4] = system: SW-620 colon
[5] = system: MDA-MB-231 breast
[6] = system: COLO 205 colon
[7] = system: HOP-62 NSCLC
[8] = system: HS 578T breast
[9] = system: SF-539 CNS
[10] = system: MDA-N
[11] = system: CCRF-CEM leukemia
[12] = system: IGROV1 ovarian
[13] = system: OVCAR-4 ovarian
[14] = system: LOX IMVI melanoma
[15] = system: HT29 colon
[16] = system: OVCAR-3 ovarian
[17] = system: SK-MEL-5 melanoma
[18] = system: PC-3 prostate

Compound: CC1=CC(C)C/C=C/C2C3OC3(C)C(C)C3C(Cc4c[nH]c5ccccc45)NC(=O)C23C(=O)C=CC(=O)C1O (stereo unspecified)
- TGI [1]: 38.2 µM
- TGI [2]: 5.55 µM
- TGI [3]: 32 µM
- TGI [4]: 25.9 µM
- TGI [5]: 16.9 µM
- TGI [6]: 2000 nM
- TGI [7]: 26.7 µM
- TGI [8]: 56.5 µM
- TGI [9]: 29.8 µM
- TGI [10]: 22.6 µM
- TGI [11]: 3.02 µM
- TGI [12]: 24.6 µM
- TGI [13]: 24.3 µM
- TGI [14]: 17.9 µM
- TGI [15]: 6.66 µM
- TGI [16]: 12.1 µM
- TGI [17]: 24.4 µM
- TGI [18]: 30.1 µM

Compound: O=c1cnn(C2OC(C(O)CO)C(O)C2O)c(=O)[nH]1 (stereo unspecified)
- TGI [1]: > 100 µM
- TGI [2]: > 100 µM
- TGI [3]: > 100 µM
- TGI [4]: > 100 µM
- TGI [5]: > 100 µM
- TGI [6]: > 100000 nM
- TGI [7]: > 100 µM
- TGI [8]: > 100 µM
- TGI [9]: > 100 µM
- TGI [10]: > 100 µM
- TGI [11]: > 100 µM
- TGI [12]: > 100 µM
- TGI [13]: > 100 µM
- TGI [14]: > 100 µM
- TGI [15]: > 100 µM
- TGI [16]: > 100 µM
- TGI [17]: > 100 µM
- TGI [18]: > 100 µM

From PubChem BioAssay (NCI)
